Assay results reported in patent publication US20100266623A1, “SYNTHETIC, SELF ADJUVANTING VACCINES” (priority 2008, published 2010).
Structures can show the parent of a compound that is named as a salt. Where no end group is shown, it is not given here.

Key:
anti-DNP antibodies = assay: Inhibition ELISA for specificity of anti-DNP antibodies on DNP-BSA coated plates; format: binding, BALB/c mice; settings: for inhibition of antibody binding to DNP-BSA coated plates: inhibitor dilutions from 25 nmol/well; for inhibition of antibody binding to DNP-BSA coated plates by irrelevant inhibitors: sera not specified
Protocol: Competitive ELISA assays involved an extra step whereby ½ log dilutions of inhibitors in BSA5PBST beginning at 25 nmol/well were added to a constant limiting concentration of antibody in BSA5PBST and incubated for 2 hours on separate polyvinyl plates during the blocking step of a regular ELISA. 50 μl/well of the inhibitor and sera mixtures were then transferred to coated, blocked and washed plates and incubated overnight. Plates were then conjugated with HRP-RαM, developed, and read as per ELISA. The percentage of inhibition was determined by the following formula: […]
Inhibition ELISAs were utilised to determine whether antibody-titres detected in previous direct-binding ELISAs consisted mainly of anti-DNP antibodies. All immunogens (peptide- and protein-based) incorporated the 2,4-DNP isomer.
Sera were incubated with different amounts of various inhibitors (FIG. 14) before addition to DNP-BSA coated plates.

[1] = test system: anti-amphetamine antibodies; assay: Competitive ELISA for specificity of anti-amphetamine antibodies; format: binding; settings: 2° sera of mice immunised with lipidated amphetamine-TH(MV); coat 5 μg per ml
[2] = 2° sera of BALB/c mice immunised with DNP-BSA in CFA
[3] = 2° sera of BALB/c mice immunised with lipidated DNP-TH(MV)

Compound: O=[N+]([O-])c1ccc(O)c([N+](=O)[O-])c1 [2,4-DNP, 2,4-dinitrophenol]
- inhibition of antibody binding to DNP-BSA coated plates (anti-DNP antibodies; [2]): No inhibition
- inhibition of antibody binding to DNP-BSA coated plates (anti-DNP antibodies; [3]): 35%

Compound: Oc1ccccc1 [phenol]
- inhibition of antibody binding to DNP-BSA coated plates by irrelevant inhibitors (anti-DNP antibodies): no inhibition

Compound: COC(=O)[C@H]1[C@@H](OC(=O)c2ccccc2)C[C@@H]2CC[C@H]1N2C [cocaine hydrochloride]
- inhibition of antibody binding to amphetamine-TH(ova) coated plates [1]: No inhibition

Compound: N[C@@H](Cc1ccc(O)cc1)C(=O)O [tyrosine]
- inhibition of antibody binding to DNP-BSA coated plates by irrelevant inhibitors (anti-DNP antibodies): no inhibition

Compound: CN[C@@H](C)Cc1ccccc1 [Methamphetamine hydrochloride]
- inhibition of antibody binding to amphetamine-TH(ova) coated plates [1]: No inhibition

Compound: C[C@H](N)Cc1ccccc1 [Amphetamine-sulfate, D-amphetamine sulfate]
- inhibition of antibody binding to amphetamine-TH(ova) coated plates [1]: low level of inhibition

Compound: amphetamine-TH(Flu): succinyl amphetamine-Lys-TH(Flu) peptide, no lipid; coating antigen and inhibitor (KALNNRFQIKGVELKS; not fully specified)
- inhibition of antibody binding to amphetamine-TH(ova) coated plates [1]: lower level of inhibition

Compound: O=C(O)CCCCCNc1ccc([N+](=O)[O-])cc1[N+](=O)[O-] [2,4-DNP-ahx, 2,4-dinitrophenol-ε-amino-n-caproic acid]
- inhibition of antibody binding to DNP-BSA coated plates (anti-DNP antibodies; [2]): approximately 55%
- inhibition of antibody binding to DNP-BSA coated plates (anti-DNP antibodies; [3]): approximately 80%
